Experimental data: patent US20250011314A1, “MICROBIOCIDAL PYRAZOLE DERIVATIVES” (SYNGENTA CROP PROTECTION AG, priority 2021, published 2025)

Assays:
[1] = test system: Glomerella lagenarium (Colletotrichum lagenarium); assay: Glomerella lagenarium (Colletotrichum lagenarium) / liquid culture (anthracnose); format: cell-based; conditions: Colletotrichum orbiculare, liquid culture (PDB), 24° C., growth inhibition photometrically 3-4 days after application, read-out: control of Glomerella lagenarium compared to untreated control
Procedure: (§1) Example B-3: Glomerella lagenarium (Colletotrichum lagenarium)/Liquid Culture (Anthracnose) Conidia of the fungus from cryogenic storage are directly mixed into nutrient broth (PDB potato dextrose broth). After placing a (DMSO) solution of test compound into a microtiter plate (96-well format), the nutrient broth containing the fungal spores is added. The test plates are incubated at 24° C. and the inhibition of growth is measured photometrically 3-4 days after application.

[2] = test system: Monographella nivalis (Microdochium nivale); assay: Monographella nivalis (Microdochium nivale) / liquid culture (foot rot cereals); format: cell-based; conditions: liquid culture (PDB), 24° C., growth inhibition photometrically 4-5 days after application, read-out: control of Monographella nivalis compared to untreated control
Procedure: as §1, with “B-7: Monographella Nivalis (Microdochium nivale)/Liquid” for “B-3: Glomerella lagenarium (Colletotrichum lagenarium)/Liquid”, “(Foot Rot Cereals)” for “(Anthracnose)”, “determined” for “measured”, “4-5” for “3-4”

[3] = test system: Mycosphaerella graminicola (Septoria tritici); assay: Mycosphaerella graminicola (Septoria tritici) / liquid culture (Septoria blotch); format: cell-based; conditions: Zymoseptoria tritici, liquid culture (PDB), 24° C., growth inhibition photometrically 4-5 days after application, read-out: control of Mycosphaerella graminicola compared to untreated control
Procedure: as §1, with “B-12: Mycosphaerella graminicola (Septoria tritici)/Liquid” for “B-3: Glomerella lagenarium (Colletotrichum lagenarium)/Liquid”, “(Septoria Blotch)” for “(Anthracnose)”, “determined” for “measured”, “4-5” for “3-4”

[4] = test system: Magnaporthe grisea (Pyricularia oryzae); format: in vivo; conditions: 200 ppm; rice leaf segments cv. Ballila; inoculated 2 days after application; assessed 5-7 days after application

Compound	inhibition of growth at 20 ppm [1]	inhibition of growth at 20 ppm [2]	inhibition of growth at 20 ppm [3]	control of Magnaporthe grisea compared to untreated control [4]
Cn1cc(C(C)(CNC(=O)c2cc(-c3ccc(F)cc3F)on2)c2nc(Cl)cs2)cn1 (racemic) [Compound P-4, N-[2-(4-chlorothiazol-2-yl)-2-(1-methylpyrazol-4-yl)propyl]-5-(2,4-difluorophenyl)isoxazole-3-carboxamide]	≥ 80%	≥ 80%	≥ 80%	
Cn1cc(C(C)(CNC(=O)c2cc(-c3ccc(F)cc3F)on2)c2nc(Cl)cs2)cn1 (single isomer, unassigned) [Compound P-5, N-[2-(4-chlorothiazol-2-yl)-2-(1-methylpyrazol-4-yl)propyl]-5-(2,4-difluorophenyl) isoxazole-3-carboxamide]	≥ 80%	≥ 80%	≥ 80%	
Cn1cc(C(C)(CNC(=O)c2cc(-c3ccc(F)cc3F)on2)c2ccn(C)n2)cn1 (stereo not shown) [Compound P-1, 5-(2,4-difluorophenyl)-N-[2-(1-methylpyrazol-3-yl)-2-(1-methylpyrazol-4-yl)propyl]isoxazole-3-carboxamide]	≥ 80%	≥ 80%	≥ 80%	at least 80%
Cn1cc(C(C)(CNC(=O)c2cc(-c3ccc(F)cc3F)on2)c2nccs2)cn1 (stereo not shown) [Compound P-2, 5-(2,4-difluorophenyl)-N-[2-(1-methylpyrazol-4-yl)-2-thiazol-2-yl-propyl]isoxazole-3-carboxamide]	≥ 80%	≥ 80%	≥ 80%	
Cn1cc(C(C)(CNC(=O)c2cc(-c3ccc(F)cc3F)on2)c2nc(Cl)c(Cl)s2)cn1 (stereo not shown) [Compound P-3, N-[2-(4,5-dichlorothiazol-2-yl)-2-(1-methylpyrazol-4-yl)propyl]-5-(2,4-difluorophenyl)isoxazole-3-carboxamide]	≥ 80%	≥ 80%	≥ 80%	
Cn1cc(C(C)(CNC(=O)c2cc(-c3ccc(F)cc3F)on2)c2ncc(Br)s2)cn1 (stereo not shown) [Compound P-7, N-[2-(5-bromothiazol-2-yl)-2-(1-methylpyrazol-4-yl)propyl]-5-(2,4-difluorophenyl) isoxazole-3-carboxamide]	≥ 80%	≥ 80%	≥ 80%	
Cn1cc(C(C)(CNC(=O)c2cc(-c3ccc(F)cc3F)on2)c2nc(Br)cs2)cn1 (stereo not shown) [Compound P-8, N-[2-(4-bromothiazol-2-yl)-2-(1-methylpyrazol-4-yl)propyl]-5-(2,4-difluorophenyl) isoxazole-3-carboxamide]	≥ 80%	≥ 80%	≥ 80%	
Cn1cc(C(C)(CNC(=O)c2cc(-c3ccc(F)cc3F)on2)c2nc(C(F)(F)F)cs2)cn1 (stereo not shown) [Compound P-9, 5-(2,4-difluorophenyl)-N-[2-(1-methylpyrazol-4-yl)-2-[4-(trifluoromethyl)thiazol-2-yl]propyl]isoxazole-3-carboxamide]	≥ 80%	≥ 80%	≥ 80%	
Cn1cc(C(C)(CNC(=O)c2cc(-c3ccc(F)cc3F)on2)c2csc(Br)n2)cn1 (stereo not shown) [Compound P-10, N-[2-(2-bromothiazol-4-yl)-2-(1-methylpyrazol-4-yl)propyl]-5-(2,4-difluorophenyl) isoxazole-3-carboxamide]	≥ 80%	≥ 80%	≥ 80%	
Cn1cc(C(C)(CNC(=O)c2cc(-c3ccc(F)cc3F)on2)c2nc(C3CC3)cs2)cn1 (stereo not shown) [Compound P-11, N-[2-(4-cyclopropylthiazol-2-yl)-2-(1-methylpyrazol-4-yl)propyl]-5-(2,4-difluorophenyl) isoxazole-3-carboxamide]	≥ 80%	≥ 80%	≥ 80%	
